13 molecules from patent publication US20240360154A1, “AROYL SUBSTITUTED TRICYCLIC COMPOUND, PREPARATION METHOD THEREFOR AND USE THEREOF” (GENFLEET THERAPEUTICS (SHANGHAI) INC., priority 2020, published 2024) can be followed below.

One test concerns the target BTK (Homo sapiens (Human), UniProt Q06187). In words: BTK enzyme experiment (ADP-Glo kinase assay). In kind it is biochemical. Conditions: 10 nM BTK, ATP 125 μM, Poly(Glu4, Tyr1), 90 minutes at 20° C.; read-out: BTK(WT) IC50. In short, it runs like this:
(§1)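 Wild-type or C481S BTK, added as 2× solution at 10 nM, preincubated 10 min with 3-fold compound dilutions in 50 mM HEPES pH 7.5, 10 mM MgCl2, 2 mM DTT, 0.0015% Brij-35. ADP-Glo luminescence norm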
(In general: ADP-Glo turns the ADP formed in a reaction into a luminescent signal.)

Another test addresses BTK (C481S) (Homo sapiens (Human), UniProt Q06187, C481S). In words: BTK C481S enzyme experiment (ADP-Glo kinase assay). It counts as biochemical. Conditions: 10 nM BTK C481S, ATP 125 μM, Poly(Glu4, Tyr1), 90 minutes at 20° C. In short, it runs like this:
as §1

Another test has as its target p-BTK (WT) (Homo sapiens (Human), UniProt Q06187). In words: p-BTK cell experiment, HEK293 transfected with WT-BTK plasmid (P-BTK Y223 sandwich ELISA). In kind it is cell-based. The note with it: HEK293 cells, compound cultured for two hours. On the procedure: (§2) Day 1: HEK293 cells (ADDEXBIO, T0011001) at logarithmic growth phase were taken, digested with enzyme EDTA, collected and counted, and 2E6 cells were inoculated in a 10 cm culture dish and cultured overnight. Day 2: A mixed solution containing 6 μg of WT-BTK/C481S-BTK plasmid and 18 μL of FuGENE HD transfection reagent was prepared by using 1000 μL of Opti-MEM. After standing at room temperature for 10 minutes, the mixed solution was slowly added to the culture dish with a pipettor and cultured overnight. Day 3: The culture dish was taken out, and the cells were digested with enzyme EDTA, collected and counted, and 1E4 cells were inoculated in a 96-well cell culture plate and cultured overnight. A 3.16-fold gradient concentration stock solution of 1000× compound was prepared using DMSO, and placed at room temperature. Day 4: A prepared 1000× compound stock solution was taken, and diluted 200-fold to 5× compound stock solution with culture medium. 5× compound stock solution was added to each cell culture well with a final concentration of 1× compound stock solution and a DMSO content of 0.1%. DMSO was used as an experimental control. After the compound was added and cultured for two hours, the residual culture medium was removed. 100 μL of cell lysis buffer was added to each well, stood on ice for 30 minutes, and ultrasonically lysed with ice water for 5 minutes. After diluting the cell lysate in proportion, 80 μL of the mixture was transfer to an ELISA plate, and 80 μL of cell lysis buffer was added to the blank well. After incubating in an incubator at 37° C. for 2 hours, the plate was taken and the antibody incubation and color development termination operation were completed according to the instructions of Pathscan P-BTK (Y223) Sandwich ELISA Kit (Cell Signaling #23843 CA), and finally the OD value was read. The inhibition rate of the compound (%)=(ODcontrol−ODcompound)/(ODcontrol−ODblank)×100% was calculated. The compound gradient dilution concentration and the corresponding cell proliferation inhibition rate were fit by using Prism 8 four-parameter method, and IC50 value was calculated.

Another test concerns the target p-BTK (C481S) (Homo sapiens (Human), UniProt Q06187, C481S). Kind of test: p-BTK cell experiment, HEK293 transfected with C481S-BTK plasmid (P-BTK Y223 sandwich ELISA). Conditions: HEK293 cells, compound cultured for two hours. It counts as cell-based. How it is done:
as §2

The next test concerns TMD-8 cells. In words: TMD-8 proliferation inhibition experiment. In kind it is cell-based. Conditions: human diffuse large B lymphoma cells, three days incubation. In short, it runs like this:
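Log-phase cells seeded in 384-well plates (600 TMD-8 in RPMI 1640, 2000 OCI-LY10 in IMDM, both 10% FBS), then exposed one day later to 3-fold compound dilutions at 0.25% DMSO for three days. ADP-Glo luminescence read; inhibition versus DMSO and medium-only blank, IC50 by four-parameter fit.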

A further test has as its system OCI-LY10 cells. In words: OCI-LY10 proliferation inhibition experiment. The note with it: human diffuse large B lymphoma cells, three days incubation. It counts as cell-based. How it is done: TMD-8 cells are human diffuse large B lymphoma (Mingzhou Bio, MZ-0832), cultured in 10% FBS+1% PS 1640 medium; OCI-LY10 is human diffuse large B lymphoma (BeNa Culture Collection, BNCC337742), cultured in 10% FBS+1% PS IMDM. Day 1: Cells at logarithmic growth phase were taken, counted and inoculated 600 TMD-8 or 2000 OCI-LY10 cells in a 384-well cell culture plate and cultured overnight. Day 2: A 3-fold gradient concentration stock solution of 400× compound was prepared with DMSO, and diluted 40-fold to a 10× compound stock solution with culture medium. The 10× compound stock solution was added to each cell culture well with a final concentration of 1× compound stock solution and a DMSO content of 0.25%. DMSO was used as experimental control, and culture medium was used as blank control. The incubation was continued for three days after compound addition. On the fifth day, 25 μL of […] was added to each well, mixed well and incubated for 10 minutes, then the chemiluminescence value (RLU value) was read. The cell proliferation inhibition rate (%)=(RLUcontrol−RLUcompound)/(RLUcontrol−RLUblank)×100% was calculated. The compound gradient dilution concentration and the corresponding cell proliferation inhibition rate were fit by using XLFit four-parameter method, and IC50 value was calculated.

One may read the IC50 as the point on the concentration scale where inhibition reaches its midpoint.

Chain of BTK (C481S) (Q06187 whole entry C481S): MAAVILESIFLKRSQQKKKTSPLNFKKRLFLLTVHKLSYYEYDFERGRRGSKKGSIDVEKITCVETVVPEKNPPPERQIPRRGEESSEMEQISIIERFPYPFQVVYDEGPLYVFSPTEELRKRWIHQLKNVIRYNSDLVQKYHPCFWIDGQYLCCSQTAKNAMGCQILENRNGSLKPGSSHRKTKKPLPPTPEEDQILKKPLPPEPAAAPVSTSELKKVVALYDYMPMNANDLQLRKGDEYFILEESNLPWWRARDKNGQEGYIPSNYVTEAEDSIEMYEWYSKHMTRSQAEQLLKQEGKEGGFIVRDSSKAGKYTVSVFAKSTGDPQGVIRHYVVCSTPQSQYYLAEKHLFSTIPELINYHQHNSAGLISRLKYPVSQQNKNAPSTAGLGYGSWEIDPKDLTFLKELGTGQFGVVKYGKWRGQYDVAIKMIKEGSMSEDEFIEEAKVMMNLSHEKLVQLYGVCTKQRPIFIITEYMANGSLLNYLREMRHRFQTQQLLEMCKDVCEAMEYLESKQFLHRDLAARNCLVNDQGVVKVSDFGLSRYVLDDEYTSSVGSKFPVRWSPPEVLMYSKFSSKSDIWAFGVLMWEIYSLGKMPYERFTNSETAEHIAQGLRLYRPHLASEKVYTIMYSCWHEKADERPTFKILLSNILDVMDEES
Chain of p-BTK (C481S) (Q06187 whole entry C481S): as above
Chain of p-BTK (WT) (Q06187 whole entry): as the sequence (Q06187 whole entry C481S) above, with S481C counted along it
Chain of BTK (Q06187 whole entry): as the sequence (Q06187 whole entry C481S) above, with S481C counted along it

For `CN1CCC2(C1)Nc1c(cnc3[nH]cc(C(=O)c4ccc(Oc5ccccc5)cc4Cl)c13)NC2=O` (centres unmarked) [Z2], the IC50 on BTK was found to be 19.4 nM; at BTK (C481S), 12.3 nM; against p-BTK (WT), 123 nM; on p-BTK (C481S), 72.8 nM; with TMD-8 cells, 188 nM; in the test with OCI-LY10 cells it was 238 nM.
For `CN1CC[C@@]2(C1)Nc1c(cnc3[nH]cc(C(=O)c4ccc(Oc5ccccc5)cc4Cl)c13)NC2=O` (single isomer, unassigned) [Z2-2], the concentration for half-maximal inhibition (IC50) at BTK turned out to be 25.4 nM; against BTK (C481S), 10.9 nM; against p-BTK (WT), 41.5 nM; on p-BTK (C481S), 56.6 nM; with TMD-8 cells it was 266 nM; in the test with OCI-LY10 cells, 307 nM.
With `COCC1(C)Nc2c(cnc3[nH]cc(C(=O)c4ccc(Oc5cc(C)ccn5)cc4Cl)c23)NC1=O` (single isomer, unassigned) [Z64-1, 9-(2-chloro-4-((4-methylpyridin-2-yl)oxy)benzoyl)-2-(methoxymethyl)-2-methyl-1,2,4,7-tetrahydro-3H-pyrrolo[3′,2′:5,6]pyrido[3,4-b]pyrazin-3-one], the IC50 at BTK was 6.3 nM; against BTK (C481S), 10.7 nM; against p-BTK (WT), 58.5 nM; against p-BTK (C481S), 198 nM; in the test on TMD-8 cells (Homo sapiens, TMD8, 72 h), 194 nM.
Consider `CN1CC[C@]2(C1)Nc1c(cnc3[nH]cc(C(=O)c4ccc(Oc5ccccc5)cc4Cl)c13)NC2=O` (single isomer, unassigned) [Z2-1], for which the IC50 at BTK is 19 nM; against BTK (C481S), 9.2 nM; on p-BTK (WT), 29.2 nM; against p-BTK (C481S), 50 nM; in the test with TMD-8 cells, 123 nM; in the test with OCI-LY10 cells, 200 nM.
Take `O=C(c1ccc(Oc2ccccc2)cc1Cl)c1c[nH]c2ncc3c(c12)N[C@@]1(CC[C@H](O)C1)C(=O)N3` (single isomer, unassigned) [Z24-d]: the IC50 at BTK was determined as 3.4 nM; on BTK (C481S) it was 3.1 nM; on p-BTK (WT), 16.9 nM; at p-BTK (C481S), 15.3 nM; with TMD-8 cells, 52 nM.
With `O=C(c1ccc(Oc2ccccc2)cc1Cl)c1c[nH]c2ncc3c(c12)N[C@@]1(CC[C@@H](O)C1)C(=O)N3` (single isomer, unassigned) [Z24-a], the IC50 at BTK amounted to 5.5 nM; at BTK (C481S), 8.4 nM; against p-BTK (WT) it was 46.9 nM; at p-BTK (C481S) it was 50 nM; in the test on TMD-8 cells, 113 nM.
As for `CC1(CO)Nc2c(cnc3[nH]cc(C(=O)c4ccc(Oc5ccccc5)cc4Cl)c23)NC1=O` (centres unmarked) [Z9, 9-(2-chloro-4-phenoxybenzoyl)-2-(hydroxymethyl)-2-methyl-1,2,4,7-tetrahydro-3H-pyrrolo[3′,2′:5,6]pyrido[3,4-b]pyrazin-3-one], the IC50 on BTK turned out to be 22.8 nM; on BTK (C481S) it was 14.5 nM; against p-BTK (WT), 23.5 nM; against p-BTK (C481S), 58 nM; with TMD-8 cells (Homo sapiens, TMD8, 72 h), 232 nM.
As for `COC[C@]1(C)Nc2c(cnc3[nH]cc(C(=O)c4ccc(Oc5ccccn5)cc4Cl)c23)NC1=O` [Z136, (S)-9-(2-chloro-4-(pyridin-2-yloxy)benzoyl)-2-(methoxymethyl)-2-methyl-1,2,4,7-tetrahydro-3H-pyrrolo[3′,2′:5,6]pyrido[3,4-b]pyrazin-3-one], the IC50 is 6.7 nM at BTK; 7.6 nM at BTK (C481S); 80.5 nM at p-BTK (WT); 114 nM against p-BTK (C481S); 178 nM in the test on TMD-8 cells (Homo sapiens, TMD8, 72 h).
`COC[C@]1(C)Nc2c(cnc3[nH]cc(C(=O)c4ccc(Oc5cc(F)ccc5OC)cc4Cl)c23)NC1=O` [Z169, (S)-9-(2-chloro-4-(5-fluoro-2-methoxyphenoxy)benzoyl)-2-(methoxymethyl)-2-methyl-1,2,4,7-tetrahydro-3H-pyrrolo[3′,2′:5,6]pyrido[3,4-b]pyrazin-3-one]: the IC50 on BTK was determined as 8.5 nM; on BTK (C481S), 9 nM; against p-BTK (WT), 10.2 nM; against p-BTK (C481S), 20.1 nM; in the test on TMD-8 cells (Homo sapiens, TMD8, 72 h), 46.9 nM.
Regarding `[2H]C([2H])([2H])[C@@]1(COC)Nc2c(cnc3[nH]cc(C(=O)c4ccc(Oc5ccccc5)cc4Cl)c23)NC1=O` [Z149, (S)-9-(2-chloro-4-phenoxybenzoyl)-2-(methoxymethyl)-2-(methyl-d3)-1,2,4,7-tetrahydro-3H-pyrrolo[3′,2′:5,6]pyrido[3,4-b]pyrazin-3-one], the IC50 worked out at 23.5 nM on BTK; 13.2 nM against BTK (C481S); 19.3 nM against p-BTK (WT); 33 nM on p-BTK (C481S); 130 nM in the test on TMD-8 cells (Homo sapiens, TMD8, 72 h).
As to `COC[C@]1(C)Nc2c(cnc3[nH]cc(C(=O)c4ccc(Oc5c(F)cccc5OC)cc4Cl)c23)NC1=O` [Z168, (S)-9-(2-chloro-4-(2-fluoro-6-methoxyphenoxy)benzoyl)-2-(methoxymethyl)-2-methyl-1,2,4,7-tetrahydro-3H-pyrrolo[3′,2′:5,6]pyrido[3,4-b]pyrazin-3-one], the IC50 at BTK amounted to 4.5 nM; against BTK (C481S), 6.6 nM; against p-BTK (WT), 3.98 nM; at p-BTK (C481S), 7.26 nM; in the test on TMD-8 cells (Homo sapiens, TMD8, 72 h), 22.4 nM.
Turning to `COC[C@]1(C)Nc2c(cnc3[nH]cc(C(=O)c4ccc(Oc5ccccc5)cc4Cl)c23)NC1=O` [Z13-1], the concentration for half-maximal inhibition (IC50) at BTK is 11.4 nM; on BTK (C481S) it was 9.8 nM; at p-BTK (WT), 36.2 nM; against p-BTK (C481S), 42.2 nM; with TMD-8 cells, 37.9 nM.
Turning to `CN(C)C1CCC2(C1)Nc1c(cnc3[nH]cc(C(=O)c4ccc(Oc5ccccc5)cc4Cl)c13)NC2=O` (centres unmarked) [Z137], the IC50 at BTK came out at 12.9 nM; at BTK (C481S), 10.3 nM; against p-BTK (WT), 50.1 nM; on p-BTK (C481S), 49.4 nM; with TMD-8 cells, 139 nM.
